For this assay, the system named is CD15+CD11b- neutrophil precursors. The assay is described as follows: single cell proliferation assay of sorted neutrophil precursors in hematopoietic growth factors. It is filed as cell-based, human. As to conditions: after 10 days in culture; for Percent of Total Cells Evaluated, 0 Cells/Wells / Percent of Total Cells Evaluated, 1-4 Cells/Well / Percent of Total Cells Evaluated, 5-8 Cells/Well / Percent of Total Cells Evaluated, 9-16 Cells/Well / Percent of Total Cells Evaluated, 17-32 Cells/Well / Percent of Total Cells Evaluated, >32 Cells/Well: Table V, individual growth factors, neutrophil precursors. How it is done: Apheresis samples were collected after peripheral blood counts reached 1000/ul from patients mobilized with G-CSF (10 ug/kg/day) following cyclophosphamide/VP16 chemotherapy. Apheresis was performed using the CS-3000® blood cell separator (Fenwal Division, Baxter Healthcare, Deerfield, Ill.). Bone marrow was collected from normal volunteers.
The assays were performed by sorting single cells based upon expression of CD15 and CD11b by flow cytometry into multiwell plates containing 10 ul of culture media with various growth factor combinations. […] The same studies were performed on fresh bone marrow for comparison. Plates containing the sorted cells were incubated at 37° C. and the number of cells in each well were counted on days 1, 3 and 10. For further characterization of antigenic expression, cells at varying timepoints of culture were stained with the following antigenic combinations: FITC-CD15/PE-CD11b, FITC-CD71/PE-CD45RA,and FITC-CD67/PE-CD34.
To assess the absolute requirement of growth factors on the proliferation of neutrophil precursors, single cells were plated in the presence or absence of all four growth factors described above. The single cell cultures were incubated for an additional 10 days and then each well was scored for the number of total cells. The wells were categorized according to the number of cells per well.
To determine which single growth factor or combination of growth factors would support proliferation of neutrophil precursors, various combinations of the above growth factors were tested in the single cell proliferation assay.

For the molecule “GM-CSF: hematopoietic growth factor, granulocyte and macrophage colony-stimulating factor”, the “Percent of Total Cells Evaluated, 0 Cells/Wells” value (“Percent … 0 Cells/Wells” below) stood at 33%; the “Percent of Total Cells Evaluated, 1-4 Cells/Well” value (shortened to “Percent … 1-4 Cells/Well”) worked out at 44%; the “Percent of Total Cells Evaluated, 5-8 Cells/Well” value (from here on “Percent … 5-8 Cells/Well”) is listed as 12%; the “Percent of Total Cells Evaluated, 9-16 Cells/Well” value (“Percent … 9-16 Cells/Well” for short) amounted to 6%. Besides, the “Percent of Total Cells Evaluated, 17-32 Cells/Well” value (from here on “Percent … 17-32 Cells/Well”) came to 4% and the “Percent of Total Cells Evaluated, >32 Cells/Well” value (shortened to “Percent … >32 Cells/Well”) is reported as 1%.

In the case of “SCF: hematopoietic growth factor, stem cell factor”, the “Percent … 0 Cells/Wells” value came out at 25%; the “Percent … 1-4 Cells/Well” value was found to be 52%; the “Percent … 5-8 Cells/Well” value came out at 13%; the “Percent … 9-16 Cells/Well” value is listed as 8%. Besides, the “Percent … 17-32 Cells/Well” value was found to be 2% and the “Percent … >32 Cells/Well” value was 1%.

B1: G-CSF: hematopoietic growth factor, granulocyte colony-stimulating factor (protein, UniProt P09919 31-207, looked up)
Granulocyte …: TPLGPASSLPQSFLLKCLEQVRKIQGDGAALQEKLVSECATYKLCHPEELVLLGHSLGIPWAPLSSCPSQALQLAGCLSQLHSGLFLYQGLLQALEGISPELGPTLDTLQLDVADFATTIWQQMEELGMAPALQPTQGAMPAFASAFQRRAGGVLVASHLQSFLEVSYRVLRHLAQP
Consider B1, for which the “Percent … 0 Cells/Wells” value turned out to be 22%; the “Percent … 1-4 Cells/Well” value is given as 40%; the “Percent … 5-8 Cells/Well” value is reported as 10%; the “Percent … 9-16 Cells/Well” value is 10%. Also, the “Percent … 17-32 Cells/Well” value was 6% and the “Percent … >32 Cells/Well” value is recorded as 13%. Besides, the “fraction of proliferating neutrophil precursors and extent of proliferation, compared with other growth factors” value (result in words) was “enhances proliferation to a greater extent then either GM-CSF, IL-3 or SCF alone”.

Source of the values: patent US5955357A, “In-vitro-derived human neutrophil precursor cells” (Nexell Therapeutics Inc., priority 1994, dated 1999).
